Assay results: patent US20150274658A1, “THERAPEUTIC LACTAMS” (Allergan, Inc., priority 2014, published 2015)

Assays:
EP2 [1] = molecular target: T1, EP2 (Homo sapiens, UniProt P43116); experiment: EP2 cAMP functional assay; assay type: cell-based
Source text: (§1) U.S. patent application Ser. No. 11/553,143, filed on Oct. 26, 2006, incorporated by reference herein, describes the methods used to obtain the in vitro data in the table below.

EP2 [2] = molecular target: T1, EP2; experiment: EP2 binding (Ki)
Source text: as §1

T1 sequence (P43116 whole entry): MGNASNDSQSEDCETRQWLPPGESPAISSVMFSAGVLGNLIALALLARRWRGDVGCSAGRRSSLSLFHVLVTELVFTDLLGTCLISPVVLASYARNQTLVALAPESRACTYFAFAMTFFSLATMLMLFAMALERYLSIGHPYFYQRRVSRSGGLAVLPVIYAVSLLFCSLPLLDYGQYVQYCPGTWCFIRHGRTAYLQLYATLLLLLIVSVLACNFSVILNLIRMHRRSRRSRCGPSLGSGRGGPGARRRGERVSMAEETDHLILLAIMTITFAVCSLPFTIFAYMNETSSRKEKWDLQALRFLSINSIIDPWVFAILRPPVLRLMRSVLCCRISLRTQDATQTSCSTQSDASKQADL

Row | EC50 (EP2 [1]) [nM] | Ki (EP2 [2]) [nM] | SMILES
1 | 233 | – | CCCCCC(O)c1ccc(N2C(=O)C(C)C[C@@H]2COCc2ccc(C(=O)O)s2)cc1 (single isomer, unassigned) [Example 1]
2 | – | > 10000 | CCCCCC(O)c1ccc(N2C(=O)C(C)C[C@@H]2COCc2ccc(C(=O)O)s2)cc1 (single isomer, unassigned) [Example 2]
